Measured values from patent US20190175691A1, “METHODS FOR DETECTING AND MODULATING THE EMBRYONIC-FETAL TRANSITION IN MAMMALIAN SPECIES” (BioTime, Inc., priority 2016, published 2019).
Starred links: 1 amine or outer side, 2 acyl side, 3 side chain; linkers in the order of their positions; H or OH if unused. Positions of bridges follow the written chain, without caps; N, C: chain ends. Non-standard residues stand in square brackets, D forms with d. Residues, ends and D or L forms follow the SMILES beside them. Chains are numbered I, II in the order given. Actinocin(9to1) = Cc1c2oc3c(C)ccc(C(=O)[*:1])c3nc-2c(C(=O)[*:2])c(N)c1=O; NMeV = CN[C@H](C(=O)O)C(C)C; Sar = CNCC(=O)O

B1: AMH: anti-Mullerian hormone (AMH), secreted protein iTR factor (protein, UniProt P03971 452-560, looked up)
Muellerian-inhibiting factor: SAGATAADGPCALRELSVDLRAERSVLIPETYQANNCQGVCGWPQSDRNPRYGNHVVLLLKMQVRGAALARPPCCVPTAYAGKLLISLSEERISAHHVPNMVATECGCR

Tests used:
Format in all cases: cell-based
COX7A1 transcript [1] = assay: Screen for iCM factors: increase of COX7A1 transcript in cancer cell lines; conditions: Lung (A549), breast (MCF7), and prostate (PC3) cancer cell lines
Source text: Lung (A549), breast (MCF7), and prostate (PC3) cancer cell lines were exposed to diverse factors including biologically active small molecules as well as RNAi directed to specific genes and the relative increase in levels of COX7A1 transcript was used as a marker of iCM.

COX7A1 transcript [2] = assay: Screen for iTR factors: reduction of COX7A1 transcript in cancer cell lines; conditions: Lung (A549), breast (MCF7), and prostate (PC3) cancer cell lines
Source text: Values under cell lines represent proportional decreased values for COX7A1 transcript in the cell line.
Lung (A549), breast (MCF7), and prostate (PC3) cancer cell lines were exposed to diverse factors including biologically active small molecules as well as RNAi directed to specific genes and the relative reduction of levels of COX7A1 transcript was used as a marker of iTR.

[3] = test system: adult-derived MDW fibroblasts; assay: Scratch test on confluent MDW fibroblast monolayer; conditions: MDW passage 5, 1.5 mm scratch, 24 hours; 0.5 mM valproic acid, 10 ng/mL AMH, 20 ng/mL GFER; control 20%
Method: The identification of the secreted protein iTR factors GFER and AMH as well as the agent valproic acid, provides a novel cocktail of factors to generate iTR in vitro as well as in vivo. To determine the effects of the factors, cultured adult-derived MDW fibroblasts as well as umbilical cord-derived MSCs (MSCwj) were treated with varying concentrations of the factors and the rate of growth and regrowth following a scratch test are performed.
(§1) The fibroblast line MDW (passage 5) is seeded in multiple wells of a 6 well plate and cultured to confluence. A 1.5 mm “scratch” was introduced onto the monolayer using a 200 ul pipette tip, thereby denuding the fibroblasts from the culture surface. Factors including 0.5 mM valproic acid, 10 ng/mL AMH, and 20 ng/mL GFER are added to the growth medium which as DMEM medium supplemented with 10% FBS. 24 hours later, the % of the denuded surface was determined by phase contrast microscopy. […] Due to the lability and diffusion of the factors when administered in vivo, the formulation of the factors alone or in combination in a hydrogel such as crosslinked hyaluronic acid or crosslinked hyaluronic acid and collagen provides a preferred method of delivering the factors to increase tissue regeneration in animals. Alternatively, umbilical cord-derived MSCs (MSCwj) and adult skin fibroblasts (MDW) each of which express fetal/adult markers such as COX7A1 are treated with the secreted form of GFER alone at concentrations of 0, 10.0 and 100 ng/mL in DMEM medium supplemented with 10% FBS an AMH

[4] = test system: MDW adult-derived skin fibroblasts; assay: Illumina bead array expression of COX7A1 and COL1A1 in MDW fibroblasts; conditions: MDW passage 6-7, 6 days, mRNA for cMYC or SOX2 + 0.5 mM valproic acid
[5] = test system: umbilical cord-derived MSCs (MSCwj) and adult skin fibroblasts (MDW); assay: Percent confluency after 80 hours with secreted GFER; conditions: secreted GFER 0, 10.0 and 100 ng/mL, DMEM 10% FBS
Method: as §1
d cultured for 80 hours and the % confluency is determined.

Row | Molecule | COX7A1 expression (relative increase of COX7A1 transcript as marker of iCM) (COX7A1 transcript [1]) | also measured
1 | CC[C@@H]1C(=O)N(C)c2cnc(Nc3ccc(C(=O)NC4CCN(C)CC4)cc3OC)nc2N1C1CCCC1 [BI 2536] | increased COX7A1 expression | 
2 | CCn1cc(-c2ccnc3[nH]c(-c4cccc(CN(C)C)c4)cc23)c(-c2ccc(NC(=O)N(C)C)cc2)n1 [GSK1070916] |  | COX7A1 expression (relative reduction of COX7A1 transcript as marker of iTR) (COX7A1 transcript [2]): reduce COX7A1 expression
3 | O=C(O)[C@]1(Cc2cccc(Nc3nccs3)n2)CC[C@@H](Oc2cccc(Cl)c2F)CC1 [MK-5108] |  | COX7A1 expression (relative reduction of COX7A1 transcript as marker of iTR) (COX7A1 transcript [2]): reduce COX7A1 expression
4 | CCc1c2c(nc3ccc(O)cc13)-c1cc3c(c(=O)n1C2)COC(=O)[C@]3(O)CC [SN-38] | increased COX7A1 expression | 
5 | CO[C@H]1/C=C\C=C(/C)C(=O)NC2=CC(=O)C(NCCN(C)C)=C(C[C@@H](C)C[C@H](OC)[C@H](O)[C@@H](C)/C=C(\C)[C@@H]1OC(N)=O)C2=O [alvespimycin] |  | COX7A1 expression (relative reduction of COX7A1 transcript as marker of iTR) (COX7A1 transcript [2]): reduce COX7A1 expression
6 | CN1CC[C@H](c2c(O)cc(O)c3c(=O)cc(-c4ccccc4Cl)oc23)[C@H](O)C1 [alvocidib] | increased COX7A1 expression | 
7 | CC1(C)[C@@H](OC(=O)CCC(=O)O)CC[C@]2(C)[C@H]3C(=O)C=C4[C@@H]5C[C@@](C)(C(=O)O)CC[C@]5(C)CC[C@@]4(C)[C@]3(C)CC[C@@H]12 [carbenoxolone] | increased COX7A1 expression | 
8 | COc1cc(/C=C/C(=O)CC(=O)/C=C/c2ccc(O)c(OC)c2)ccc1O [curcumin] |  | COX7A1 expression (relative reduction of COX7A1 transcript as marker of iTR) (COX7A1 transcript [2]): reduce COX7A1 expression
9 | Cc1c2oc3c(C)ccc(C(=O)N[C@@H]4C(=O)N[C@H](C(C)C)C(=O)N5CCC[C@H]5C(=O)N(C)CC(=O)N(C)[C@@H](C(C)C)C(=O)O[C@@H]4C)c3nc-2c(C(=O)N[C@@H]2C(=O)N[C@H](C(C)C)C(=O)N3CCC[C@H]3C(=O)N(C)CC(=O)N(C)[C@@H](C(C)C)C(=O)O[C@@H]2C)c(N)c1=O [dactinomycin] (I: T[dV]P[Sar][NMeV] / II: T[dV]P[Sar][NMeV]; ester I:1-I:C, II:1-II:C; linker I:N-II:N via Actinocin(9to1)) | increased COX7A1 expression | 
10 | COc1cccc2c1C(=O)c1c(O)c3c(c(O)c1C2=O)C[C@@](O)(C(C)=O)C[C@@H]3O[C@H]1C[C@H](N)[C@H](O)[C@H](C)O1 [daunorubicin] | increased COX7A1 expression | 
11 | COc1cccc2c1C(=O)c1c(O)c3c(c(O)c1C2=O)C[C@@](O)(C(=O)CO)C[C@@H]3O[C@H]1C[C@H](N)[C@H](O)[C@H](C)O1 [doxorubicin] | increased COX7A1 expression | 
12 | Cc1onc(-c2c(F)cccc2Cl)c1C(=O)N[C@@H]1C(=O)N2[C@@H]1SC(C)(C)[C@@H]2C(=O)O [flucloxacillin] | increased COX7A1 expression | 
13 | COc1cc2ncnc(Nc3ccc(F)c(Cl)c3)c2cc1OCCCN1CCOCC1 [gefitinib] | increased COX7A1 expression | 
14 | CCN(CC)Cc1ccc2cc(COC(=O)Nc3ccc(C(=O)NO)cc3)ccc2c1 [givinostat] | increased COX7A1 expression | 
15 | O=C1c2c(O)ccc(O)c2C(=O)c2c(NCCNCCO)ccc(NCCNCCO)c21 [mitoxantrone] | increased COX7A1 expression | 
16 | C[C@@H]1C[C@H]2O[C@@H]2/C=C\C=C\C(=O)Cc2c(Cl)c(O)cc(O)c2C(=O)O1 [radicocol] |  | COX7A1 expression (relative reduction of COX7A1 transcript as marker of iTR) (COX7A1 transcript [2]): reduce COX7A1 expression
17 | CN[C@@H]1C[C@H]2O[C@@](C)([C@@H]1OC)n1c3ccccc3c3c4c(c5c6ccccc6n2c5c31)C(=O)NC4 [staurosporine] | increased COX7A1 expression | 
18 | COc1cc([S+](C)[O-])ccc1-c1nc2ncccc2[nH]1 (stereo not shown) [sulmazole] | increased COX7A1 expression | 
19 | COc1cc([C@@H]2c3cc4c(cc3[C@@H](O[C@@H]3O[C@@H]5CO[C@@H](c6cccs6)O[C@H]5[C@H](O)[C@H]3O)[C@H]3COC(=O)[C@H]23)OCO4)cc(OC)c1O [teniposide] | increased COX7A1 expression | 
20 | CC(/C=C/C(=O)NO)=C\[C@@H](C)C(=O)c1ccc(N(C)C)cc1 [trichostatin-A] | increased COX7A1 expression | 
21 | CC(C)[C@]12O[C@H]1[C@@H]1O[C@]13[C@]1(O[C@H]1C[C@H]1C4=C(CC[C@@]13C)C(=O)OC4)[C@@H]2O [triptolide] | increased COX7A1 expression | 
22 | CCCC(CCC)C(=O)O [valproic acid] |  | regeneration (coverage of the denuded wounded zone) [3]: 25%; expression of COX7A1 [4]: reduced expression of COX7A1; expression of the fibrosis marker COL1A1 [4]: decreased expression of the fibrosis marker COL1A1
23 | GFER: GFER (Augmenter of Liver Regeneration (ALR)), secreted protein iTR factor |  | regeneration (coverage of the denuded wounded zone) [3]: 28%; confluency achieved [5]: dose-dependent increase in confluency
24 | calyculin | increased COX7A1 expression | 
25 | B1 |  | regeneration (coverage of the denuded wounded zone) [3]: 68%
